Measurements: patent US11293023B2, “Tunable endogenous protein degradation” (Dana-Farber Cancer Institute, Inc., priority 2015, dated 2022)

What was measured:
Assay type in all cases: cell-based
FKBP*-KRASG12V = assay: Immunoblot of FKBP*-KRASG12V (dTAG-KRAS) degradation in NIH3T3 cells
Experimental: (§1) FIG. 11 is an immunoblot of NIH3T3 cells expressing KRASG12V allele fused to FKBP* in the N-terminus or C-terminus. Cells were treated with 500 nM dFKBP7 for the indicated time. Cells were harvested and immunoblotted to measure degradation of FKBP*-KRASG12V and downstream surrogates of KRAS signaling (e.g. pMEK and pAKT).
(§2) FIG. 12 is an immunoblot of NIH3T3 cells expressing FKBP* fused to the N-terminus of KRASG12V treated with 1 uM of the indicated dFKBP heterobifunctional compounds for 24 hours. Cells were harvested and immunoblotted to measure degradation of FKBP*-KRASG12V and downstream surrogates of KRAS signaling (e.g. pMEK and pAKT).
(§3) FIG. 13 is an immunoblot of NIH3T3 cells expressing FKBP* fused to the N-terminus of KRASG12V treated with the indicated concentrations of dFKBP13 for 24 hours. Cells were harvested and immunoblotted to measure degradation of FKBP*-KRASG12V and downstream surrogates of KRAS signaling (e.g. pMEK and pAKT).
(§4) FIG. 14 is an immunoblot of NIH3T3 cells expressing FKBP* fused to the N-terminus of KRASG12V treated with 1 uM dFKBP13 for the indicated time. Cells were harvested and immunoblotted to measure degradation of FKBP*-KRASG12V and downstream surrogates of KRAS signaling (e.g. pMEK and pAKT).
FIG. 15 is an immunoblot of NIH3T3 cells expressing dTAG-KRASG12V pretreated with 1 uM Carfilzomib (proteasome inhibitor), 0.5 uM MLN4924 (neddylation inhibitor), and 10 uM Lenalidomide (CRBN binding ligand) for two hours prior to a 4 hour treatment with dFKBP13.
(§5) Cells were treated with 500 nM dFKBP7 for the indicated time. Cells were harvested and immunoblotted to measure degradation of FKBP*-KRAS and downstream surrogates of KRAS signaling (e.g. pMEK and pAKT).
(§6) In an effort to identify the best performing dFKBP molecule, dTAG-KRAS degradation was profiled across a series of dFKBP molecules. Western blotting of NIH3T3 cells expressing dTAG-KRASG12V were treated with 1 μM of the indicated dFKBP heterobifunctional compounds for 24 hours. Cells were harvested and immunoblotted to measure degradation of FKBP*-KRAS and downstream surrogates of KRAS signaling (e.g. pMEK and pAKT).
(§7) Western blotting of NIH3T3 cells expressing FKBP* fused to the N-terminus of KRAS treated with the indicated concentrations of dFKBP13 for 24 hours. Cells were harvested and immunoblotted to measure degradation of FKBP*-KRAS and downstream surrogates of KRAS signaling (e.g. pMEK and pAKT).
(§8) To evaluate the kinetic control of targeted degradation of dTAG-KRAS, dFKBP13 was administered by increased duration. Western blotting of NIH3T3 cells expressing FKBP* fused to the N-terminus of KRAS treated with 1 μM dFKBP13 for the indicated time. Cells were harvested and immunoblotted to measure degradation of FKBP*-KRAS and downstream surrogates of KRAS signaling (e.g. pMEK and pAKT).
NIH3T3 cells (CRBN-WT) were engineered to express dTAG-KRASG12V. Cells were pretreated with 1 uM Carfilzomib (proteasome inhibitor), 0.5 uM MLN4924 (neddylation inhibitor), and 10 uM Lenalidomide (CRBN binding ligand) for two hours prior to a 4 hour treatment with dFKBP13. Lysates were prepared and western immunoblot analysis performed. […] Pre-treatment with the NAE1 inhibitor MLN4924 rescued dTAG-KRASG12V expression establishing dependence on CRL activity, as expected for cullin-based ubiquitin ligases that require neddylation for processive E3 ligase activity. Pre-treatment with excess Lenalidomide abolished dFKBP13-dependent dTAG-KRASG12V degradation, confirming the requirement of CRBN engagement for degradation.

[1] = target: T1, FKBP* (FKBP12 F36V), HA-tagged (Homo sapiens, UniProt P62942, F37V); assay: Immunoblot of FKBP* degradation in 293FT cells (CRBN-WT or CRBN−/−)
T1 construct: expressed in transfected cells; host or cells: 293FT cells (CRBN-WT or CRBN-/-)
T1 sequence (P62942 2-108 F37V limits assumed): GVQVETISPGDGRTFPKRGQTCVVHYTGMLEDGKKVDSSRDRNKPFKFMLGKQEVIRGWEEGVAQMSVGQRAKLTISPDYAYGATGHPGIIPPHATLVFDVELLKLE
Experimental: 293FT cells (CRBN-WT or CRBN−/−) expressing either HA-tagged FKBP12WT or FKBP* were treated with indicated concentrations of dFKBP7 for 4 hours.
Isogenic 293FT cells (CRBN-WT or CRBN−/−) expressing either FKBP12WT or FKBP* were treated with 100 nM of either dFKBP7 or dFKBP13 for 4 hours.
Isogenic 293FT cells (CRBN-WT or CRBN−/−) expressing HA-tagged FKBP* were treated with the indicated dose of dFKBP13 for 4 hours.
293FT cells (CRBN-WT) expressing FKBP* were pretreated with 1 uM Carfilzomib (proteasome inhibitor), 0.5 uM MLN4924 (neddylation inhibitor), and 10 uM Lenalidomide (CRBN binding ligand) for two hours prior to a 4 hour treatment with dFKBP13.
The dTAG is predicated on the selectivity of FKBP* specific ligands over endogenous, wild type FKBP. In 293T cells expressing wild type FKBP12 or FKBP*, dFKBP7 induces targeted degradation only in FKBP* expressing cells. […] 293FT cells (CRBN-WT or CRBN−/−) expressing either HA-tagged FKBP12WT or FKBP* were treated with indicated concentrations of dFKBP7 for 4 hours.
In 293T cells expressing wild type FKBP12 or FKBP*, treatment with dFKBP7 and dFKBP13 induces targeted degradation only in FKBP* expressing cells. Isogenic 293FT cells (CRBN-WT or CRBN−/−) were engineered to expressed either FKBP12WT or FKBP*. Cells were treated with 100 nM of either dFKBP7 or dFKBP13 for 4 hours before lysates were prepared for western immunoblot analysis.
In an effort to define the optimal concentration of dFKB13 heterobifunctional compound to induce degradation of FKBP*, degradation was measured upon treatment with increasing concentrations of dFKBP13. Isogenic 293FT cells (CRBN-WT or CRBN−/−) were engineered to expressed HA-tagged FKBP*. Cells were treated with the indicated dose of dFKBP13 for 4 hours before lysates were prepared for western immunoblot analysis.
293FT cells (CRBN-WT) were engineered to express FKBP*. Cells were pretreated with 1 uM Carfilzomib (proteasome inhibitor), 0.5 uM MLN4924 (neddylation inhibitor), and 10 uM Lenalidomide (CRBN binding ligand) for two hours prior to a 4 hour treatment with dFKBP13. Lysates were prepared and western immunoblot analysis performed.

[2] = test system: KRAS signaling (pMEK and pAKT); assay: Immunoblot of downstream surrogates of KRAS signaling in NIH3T3 cells expressing dTAG-KRAS; settings: NIH3T3 FKBP*-KRASG12V, 1 uM, 24 hours
Experimental: as §1, §2, §3, §4, §5, §6, §7, §8
The dFKBP13 heterobifunctional compound potently degrades dTAG-KRAS mutant alleles. NIH3T3 cells were engineered to express KRAS alleles either WT or mutant forms of amino acid glycine 12 (G12C, G12D, and G12V). Western blotting of NIH3T3 cells expressing dTAG fused to the N-terminus of KRAS alleles were treated with 1 uM of dFKBP13 for 24 hours. Cells were harvested and immunoblotted to measure degradation of dTAG-KRAS and downstream surrogates of KRAS signaling (e.g. pMEK and pAKT).
The dFKBP13 heterobifunctional compound potently degrades dTAG-KRAS mutant alleles. NIH3T3 cells were engineered to express either WT or mutant KRAS alleles (G13D, Q61L, and Q61R). Western blotting of NIH3T3 cells expressing dTAG fused to the N-terminus of KRAS alleles were treated with 1 uM of dFKBP13 for 24 hours. Cells were harvested and immunoblotted to measure degradation of dTAG-KRAS and downstream surrogates of KRAS signaling (e.g. pMEK and pAKT).

[3] = 1 uM Carfilzomib, two hours prior to a 4 hour treatment with dFKBP13
[4] = 10 uM Lenalidomide, two hours prior to a 4 hour treatment with dFKBP13
[5] = 0.5 uM MLN4924, two hours prior to a 4 hour treatment with dFKBP13

In the case of `CC(C)C[C@H](NC(=O)[C@H](CCc1ccccc1)NC(=O)CN1CCOCC1)C(=O)N[C@@H](Cc1ccccc1)C(=O)N[C@@H](CC(C)C)C(=O)[C@@]1(C)CO1` [Carfilzomib, reference compound], the “effect of pretreatment on dFKBP13-induced degradation of dTAG-KRASG12V” value (shortened to “effect of pretreatment … of dTAG-KRASG12V”) (FKBP*-KRASG12V; [3]) is reported as “rescued” and the “effect of pretreatment on dFKBP13-induced degradation of HA-tagged FKBP*” value (“effect of pretreatment … of HA-tagged FKBP*” for short) [1, 3] is reported as “rescued”.

For `Nc1cccc2c1CN(C1CCC(=O)NC1=O)C2=O` (centres unmarked) [Lenalidomide, reference compound], the “effect of pretreatment … of dTAG-KRASG12V” value (FKBP*-KRASG12V; [4]) was “abolished” and the “effect of pretreatment … of HA-tagged FKBP*” value [1, 4] was “abolished”.

`NS(=O)(=O)OC[C@@H]1C[C@@H](n2ccc3c(N[C@H]4CCc5ccccc54)ncnc32)C[C@@H]1O` [MLN4924, reference compound] was tested, and the “effect of pretreatment … of dTAG-KRASG12V” value (FKBP*-KRASG12V; [5]) was “rescued” and the “effect of pretreatment … of HA-tagged FKBP*” value [1, 5] was “rescued”.

For `CC[C@H](C(=O)N1CCCC[C@H]1C(=O)O[C@H](CCc1ccc(OC)c(OC)c1)c1cccc(OCC(=O)NCCCCCCCCNC(=O)COc2cccc3c2C(=O)N(C2CCC(=O)NC2=O)C3=O)c1)c1cc(OC)c(OC)c(OC)c1` (some centres unmarked) [dFKBP9], the “degradation of FKBP*-KRASG12V” value (FKBP*-KRASG12V; NIH3T3, 1 uM, 24 hours) was “potent degradation” and the “downstream signaling (pMEK and pAKT)” value [2] was “inhibition of downstream signaling”.
